Our source for the IC50 and Km values is paper doi:10.1101/510487v2 (biorxiv, 2019).

One series concerns the target T1, FH-hGlyT2; human GlyT2 (Homo sapiens, UniProt Q9Y345).
T1 sequence (Q9Y345 1-797): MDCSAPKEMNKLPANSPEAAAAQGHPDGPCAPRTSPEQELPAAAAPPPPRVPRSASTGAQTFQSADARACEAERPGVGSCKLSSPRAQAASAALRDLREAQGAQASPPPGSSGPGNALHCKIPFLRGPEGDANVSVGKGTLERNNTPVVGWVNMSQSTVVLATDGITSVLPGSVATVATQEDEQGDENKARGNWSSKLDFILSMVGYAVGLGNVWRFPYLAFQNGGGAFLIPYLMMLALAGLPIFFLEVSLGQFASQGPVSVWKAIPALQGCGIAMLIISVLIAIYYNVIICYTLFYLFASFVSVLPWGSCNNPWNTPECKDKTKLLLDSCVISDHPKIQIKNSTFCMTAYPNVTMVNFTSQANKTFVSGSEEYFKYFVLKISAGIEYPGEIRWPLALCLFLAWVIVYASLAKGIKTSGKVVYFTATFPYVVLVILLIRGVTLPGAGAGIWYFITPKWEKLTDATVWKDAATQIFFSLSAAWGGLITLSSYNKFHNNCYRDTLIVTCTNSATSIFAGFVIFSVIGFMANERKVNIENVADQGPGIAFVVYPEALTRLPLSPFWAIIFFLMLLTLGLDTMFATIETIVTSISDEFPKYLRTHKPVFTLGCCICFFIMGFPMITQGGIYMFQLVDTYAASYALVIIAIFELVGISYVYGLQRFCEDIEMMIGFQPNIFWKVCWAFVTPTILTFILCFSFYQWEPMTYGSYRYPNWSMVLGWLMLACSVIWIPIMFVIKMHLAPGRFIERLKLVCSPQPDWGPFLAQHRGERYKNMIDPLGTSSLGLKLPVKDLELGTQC
In words: glycine uptake inhibition in PAE cells. The format is cell-based.

Substrate in series [1]: NCC(=O)O
The series can be described thus: glycine uptake in PAE cells. Format: cell-based, Homo sapiens.

As a reminder, the IC50 is the concentration at which inhibition is half-maximal. A high value points to lower potency. A word on the Km: it is the substrate concentration at which the rate is half of its maximum.

At FH-hGlyT2; human GlyT2 (pH 7.5, 10 min uptake), `O=C(O)CCCCSc1ncnc2[nH]c(=O)[nH]c12` [ZINC6865169] showed an IC50 of 0.518 ± 0.066 µM.

At FH-hGlyT2; human GlyT2 (pH 7.5, 10 min uptake), `O=C(O)CCSc1[nH]c(=O)nc2[nH]c(=O)[nH]c12` [compound 1, ZINC6620309] displayed an IC50 of 0.478 ± 0.028 µM.

For the molecule `O=c1[nH]c2c(c(=O)[nH]1)CCN(Cc1ccccc1)C2` [Lead 3], the half-maximal inhibitory concentration (IC50) against FH-hGlyT2; human GlyT2 (pH 7.5, 10 min uptake) is 33.2 µM.

Take `N[C@@H](COC(c1cccc(F)c1)c1ccccc1OCc1ccccc1)C(=O)O` (stereo partly drawn) [ALX1393, reference compound]: the IC50 against FH-hGlyT2; human GlyT2 (pH 7.5, 10 min uptake) came out at 0.026 ± 0.003 µM.

`CN(CC[C@@H](Oc1ccc(-c2ccccc2)cc1)c1ccc(F)cc1)CC(=O)O` [ALX5407, reference compound] showed an IC50 against FH-hGlyT2; human GlyT2 (slow rate of inhibition, data not shown) of 1.8 µM.

B1: FH-hGlyT2; human GlyT2 (Homo sapiens) (protein)
chain: MDCSAPKEMNKLPANSPEAAAAQGHPDGPCAPRTSPEQELPAAAAPPPPRVPRSASTGAQTFQSADARACEAERPGVGSCKLSSPRAQAASAALRDLREAQGAQASPPPGSSGPGNALHCKIPFLRGPEGDANVSVGKGTLERNNTPVVGWVNMSQSTVVLATDGITSVLPGSVATVATQEDEQGDENKARGNWSSKLDFILSMVGYAVGLGNVWRFPYLAFQNGGGAFLIPYLMMLALAGLPIFFLEVSLGQFASQGPVSVWKAIPALQGCGIAMLIISVLIAIYYNVIICYTLFYLFASFVSVLPWGSCNNPWNTPECKDKTKLLLDSCVISDHPKIQIKNSTFCMTAYPNVTMVNFTSQANKTFVSGSEEYFKYFVLKISAGIEYPGEIRWPLALCLFLAWVIVYASLAKGIKTSGKVVYFTATFPYVVLVILLIRGVTLPGAGAGIWYFITPKWEKLTDATVWKDAATQIFFSLSAAWGGLITLSSYNKFHNNCYRDTLIVTCTNSATSIFAGFVIFSVIGFMANERKVNIENVADQGPGIAFVVYPEALTRLPLSPFWAIIFFLMLLTLGLDTMFATIETIVTSISDEFPKYLRTHKPVFTLGCCICFFIMGFPMITQGGIYMFQLVDTYAASYALVIIAIFELVGISYVYGLQRFCEDIEMMIGFQPNIFWKVCWAFVTPTILTFILCFSFYQWEPMTYGSYRYPNWSMVLGWLMLACSVIWIPIMFVIKMHLAPGRFIERLKLVCSPQPDWGPFLAQHRGERYKNMIDPLGTSSLGLKLPVKDLELGTQC
As for B1, in series [1], the Km was found to be 123 µM.
